From ChEMBL document CHEMBL5352468, “Rational design, synthesis, and pharmacological evaluation of a cohort of novel beta-adrenergic receptors ligands enables an assessment of structure-activity relationships” (Eur J Med Chem, 2023)

Columns and labels:
Format in all cases: functional, cell-based
[1] = target: T1, Beta-2 adrenergic receptor (Homo sapiens, UniProt P07550); test: Antagonist activity at human beta2-adrenergic receptor expressed in CHO-K1 cells co-expressing CRE-SPAP reporter gene assessed as inhibition of fenoterol-induced CRE-SPAP production by measuring rightward shift of the fenoterol concentration response curve measured after 5 hrs incubation
T1 sequence (P07550 whole entry): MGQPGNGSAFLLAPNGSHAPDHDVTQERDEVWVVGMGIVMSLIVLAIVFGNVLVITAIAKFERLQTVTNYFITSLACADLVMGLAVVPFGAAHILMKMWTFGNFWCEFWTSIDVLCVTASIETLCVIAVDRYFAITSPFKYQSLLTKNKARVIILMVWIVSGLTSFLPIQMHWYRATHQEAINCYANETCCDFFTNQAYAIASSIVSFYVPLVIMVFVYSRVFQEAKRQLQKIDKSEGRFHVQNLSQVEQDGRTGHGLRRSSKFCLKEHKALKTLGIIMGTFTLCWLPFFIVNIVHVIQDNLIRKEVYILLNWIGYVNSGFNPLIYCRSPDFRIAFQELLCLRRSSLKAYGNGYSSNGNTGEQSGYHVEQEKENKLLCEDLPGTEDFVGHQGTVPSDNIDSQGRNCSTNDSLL

[2] = target: T2, Beta-1 adrenergic receptor (Homo sapiens, UniProt P08588); test: Antagonist activity at human beta1-adrenergic receptor expressed in CHO-K1 cells co-expressing CRE-SPAP reporter gene assessed as inhibition of fenoterol-induced CRE-SPAP production by measuring rightward shift of the fenoterol concentration response curve measured after 5 hrs incubation
T2 sequence (P08588 whole entry): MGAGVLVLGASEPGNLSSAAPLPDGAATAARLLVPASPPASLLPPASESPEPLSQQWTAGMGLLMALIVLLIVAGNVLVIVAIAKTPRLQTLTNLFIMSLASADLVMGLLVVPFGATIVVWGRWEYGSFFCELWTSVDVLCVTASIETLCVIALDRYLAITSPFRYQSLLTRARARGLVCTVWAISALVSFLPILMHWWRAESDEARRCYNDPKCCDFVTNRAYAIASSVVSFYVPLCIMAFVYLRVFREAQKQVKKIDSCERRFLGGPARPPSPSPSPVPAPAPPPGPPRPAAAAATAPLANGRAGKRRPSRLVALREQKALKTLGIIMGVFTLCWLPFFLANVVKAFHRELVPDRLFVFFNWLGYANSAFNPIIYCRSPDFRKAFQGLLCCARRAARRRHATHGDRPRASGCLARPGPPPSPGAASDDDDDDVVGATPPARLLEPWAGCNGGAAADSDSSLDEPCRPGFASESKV

[3] = target: T3, Beta-3 adrenergic receptor (Homo sapiens, UniProt P13945); test: Antagonist activity at human beta3-adrenergic receptor expressed in CHO-K1 cells co-expressing CRE-SPAP reporter gene assessed as inhibition of fenoterol-induced CRE-SPAP production by measuring rightward shift of the fenoterol concentration response curve measured after 5 hrs incubation
T3 sequence (P13945 whole entry): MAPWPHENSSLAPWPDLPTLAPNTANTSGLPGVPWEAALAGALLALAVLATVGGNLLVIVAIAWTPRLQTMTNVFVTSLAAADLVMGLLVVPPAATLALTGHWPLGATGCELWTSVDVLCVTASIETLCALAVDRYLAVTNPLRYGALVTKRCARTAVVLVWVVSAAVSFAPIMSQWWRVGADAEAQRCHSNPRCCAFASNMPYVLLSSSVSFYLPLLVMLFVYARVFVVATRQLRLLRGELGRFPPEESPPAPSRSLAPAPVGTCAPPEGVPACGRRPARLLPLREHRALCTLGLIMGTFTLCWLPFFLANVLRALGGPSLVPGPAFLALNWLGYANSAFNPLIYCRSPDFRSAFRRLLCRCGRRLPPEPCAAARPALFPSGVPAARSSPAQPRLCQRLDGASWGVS

[4] = target: T2, Beta-1 adrenergic receptor; test: Agonist activity at human beta1-adrenergic receptor expressed in CHO-K1 cells co-expressing CRE-SPAP reporter gene assessed as CRE-SPAP production measured after 5 hrs incubation
[5] = target: T1, Beta-2 adrenergic receptor; test: Agonist activity at human beta2-adrenergic receptor expressed in CHO-K1 cells co-expressing CRE-SPAP reporter gene assessed as CRE-SPAP production measured after 5 hrs incubation
[6] = target: T3, Beta-3 adrenergic receptor; test: Agonist activity at human beta3-adrenergic receptor expressed in CHO-K1 cells co-expressing CRE-SPAP reporter gene assessed as CRE-SPAP production measured after 5 hrs incubation

Structure (SMILES) | Kd ([1]; read-out: pKd (converted)) [µM] | Kd ([3]; read-out: Kd) [µM] | Kd ([2]; read-out: pKd (converted)) [µM] | further results
O=C1COc2cc(OC[C@@H](O)CNCC3COc4ccccc4O3)ccc21 (stereo partly drawn) | 3.63 | – | – | –
O=c1ccc2ccc(OC[C@@H](O)CNCC3COc4ccccc4O3)cc2o1 (stereo partly drawn) | 6.61 | – | – | –
COc1ccc(S(=O)(=O)NCCCCNC[C@H](O)COc2ccc3c(c2)OC(C)(C)CC3=O)cc1 | – | > 10 | – | Kd ([2]; read-out: Kd): > 10 µM
O[C@@H](CNCC1COc2ccccc2O1)COc1ccc2c(c1)OCO2 (stereo partly drawn) | 1.55 | – | 1.58 | EC50 [4]: 0.316 µM
CCc1ccccc1OC[C@@H](O)CNCCC(c1ccccc1)c1ccccc1 | – | – | 0.135 | EC50 [4]: 0.309 µM
CS(=O)(=O)c1ccc(CCNC[C@H](O)COc2ccc3ccc(=O)oc3c2)cc1 | – | > 10 | – | Kd ([1]; read-out: Kd): > 10 µM
O[C@@H](CNCC1COc2ccccc2O1)COc1cccc2cnccc12 (stereo partly drawn) | 0.107 | – | 0.102 | EC50 ([5]; read-out: EC50): 10 µM; Kd ([3]; read-out: pKd (converted)): 1.35 µM; EC50 ([6]; read-out: EC50): 10 µM; EC50 [4]: 0.0741 µM
O=c1ccc2ccc(OC[C@@H](O)CNCCc3ccc4c(c3)OCO4)cc2o1 | – | > 10 | 5.62 | –
CC1(C)CC(=O)c2ccc(OC[C@@H](O)CNCCCN3C(=O)c4ccccc4C3=O)cc2O1 | – | – | – | Kd ([2]; read-out: Kd): > 10 µM
CCc1ccccc1OC[C@@H](O)CN[C@H]1CCCc2ccccc21 | 0.0038 | – | – | EC50 ([5]; read-out: pEC50 (converted)): 0.00871 µM; Kd ([3]; read-out: pKd (converted)): 0.0692 µM; EC50 ([6]; read-out: pEC50 (converted)): 0.191 µM
CC(=O)Nc1ccc(CCNC[C@H](O)COc2ccc3ccc(=O)oc3c2)cc1 | – | > 10 | – | Kd ([1]; read-out: Kd): > 10 µM
CC1(C)CC(=O)c2ccc(OC[C@H](O)CNCCCc3ccccc3)cc2O1 | – | > 10 | – | –
COC(=O)[C@H](N)Cc1ccc(OC[C@@H](O)CNCC2COc3ccccc3O2)cc1 (stereo partly drawn) | – | > 10 | – | –
O[C@@H](CNCC1COc2ccccc2O1)COc1ccnc2ccccc12 (stereo partly drawn) | – | – | 6.03 | –
CC1(C)CC(=O)c2ccc(OC[C@@H](O)CNCCCc3ccccc3)cc2O1 | – | > 10 | – | –
COc1ccc(S(=O)(=O)NCCCCCCNC[C@H](O)COc2ccc3ccc(=O)oc3c2)cc1 | – | > 10 | – | –
CC(=O)NCc1cccc(OC[C@@H](O)CNCCc2ccc(NS(=O)(=O)c3ccccc3)cc2)c1 | 0.0741 | – | 0.339 | EC50 ([5]; read-out: EC50): 10 µM; Kd ([3]; read-out: pKd (converted)): 0.00676 µM; EC50 ([6]; read-out: pEC50 (converted)): 0.00447 µM; EC50 [4]: 0.38 µM
CC1(C)CC(=O)c2ccc(OC[C@H](O)CNCCCN3C(=O)c4ccccc4C3=O)cc2O1 | – | – | – | Kd ([2]; read-out: Kd): > 10 µM
